According to patent publication US9540366B2, “Ring-fused heterocyclic compound” (Kyowa Hakko Kirin Co., Ltd., priority 2012, dated 2017):
Like-named read-outs stand apart in the source and are kept apart here.

How the values were obtained:
[1] = target: T1, human Cav3.2 T-type Ca2+ channel (Homo sapiens, UniProt O95180); assay: Inhibitory effect for intracellular calcium response via Cav3.2 T-type Ca2+ channels (FLIPR Calcium 3 Assay Kit); type: cell-based
T1 construct: expressed in transfected cells; host or cells: KJMGER8 cells (Namalwa cell-derived cell line)

[2] = system: morphine-induced pruritus mice; assay: Inhibitory effect for pruritus in morphine-induced pruritus mice; type: in vivo; settings: oral dose of 10 mg/kg or less, given 30 minutes or 1 hour before intrathecal morphine; scratching counted for 30 minutes; male ddY mice
Description: Inhibitory Effect for Pruritus in Morphine-Induced Pruritus Mice
Morphine (1 nmol/5 μL, dissolved in physiological saline) or physiological saline was intrathecally administered between the fifth and sixth lumbar vertebrae of male ddY mice using a microsyringe fitted with a 30-gauge injection needle. Mice to which only morphine was administered were referred to as a control group, and mice to which only physiological saline was administered were referred to as a physiological saline-administered group.
The number of scratching behavior with the hind legs which began to be observed immediately after the morphine administration was measured for 30 minutes. Because mice show continuous scratching actions in each scratching behavior, a series of such actions was counted as a single scratching behavior.
Each test compound was administered 30 minutes or 1 hour before the morphine administration. The test compound was suspended in a 0.5% methylcellulose solution and was prepared plural administration solutions of different concentrations, and each of them was orally administered in a volume of 10 mL/kg.

[3] = human Cav3.2-expressing KJMGER8 cells (Namalwa-derived), calcium response induced by 5 mmol/L CaCl2, 3 μmol/L mibefradil as reference, read-out: IC50 for the human Cav3.2 T-type Ca2+ current

T1 sequence (O95180 whole entry): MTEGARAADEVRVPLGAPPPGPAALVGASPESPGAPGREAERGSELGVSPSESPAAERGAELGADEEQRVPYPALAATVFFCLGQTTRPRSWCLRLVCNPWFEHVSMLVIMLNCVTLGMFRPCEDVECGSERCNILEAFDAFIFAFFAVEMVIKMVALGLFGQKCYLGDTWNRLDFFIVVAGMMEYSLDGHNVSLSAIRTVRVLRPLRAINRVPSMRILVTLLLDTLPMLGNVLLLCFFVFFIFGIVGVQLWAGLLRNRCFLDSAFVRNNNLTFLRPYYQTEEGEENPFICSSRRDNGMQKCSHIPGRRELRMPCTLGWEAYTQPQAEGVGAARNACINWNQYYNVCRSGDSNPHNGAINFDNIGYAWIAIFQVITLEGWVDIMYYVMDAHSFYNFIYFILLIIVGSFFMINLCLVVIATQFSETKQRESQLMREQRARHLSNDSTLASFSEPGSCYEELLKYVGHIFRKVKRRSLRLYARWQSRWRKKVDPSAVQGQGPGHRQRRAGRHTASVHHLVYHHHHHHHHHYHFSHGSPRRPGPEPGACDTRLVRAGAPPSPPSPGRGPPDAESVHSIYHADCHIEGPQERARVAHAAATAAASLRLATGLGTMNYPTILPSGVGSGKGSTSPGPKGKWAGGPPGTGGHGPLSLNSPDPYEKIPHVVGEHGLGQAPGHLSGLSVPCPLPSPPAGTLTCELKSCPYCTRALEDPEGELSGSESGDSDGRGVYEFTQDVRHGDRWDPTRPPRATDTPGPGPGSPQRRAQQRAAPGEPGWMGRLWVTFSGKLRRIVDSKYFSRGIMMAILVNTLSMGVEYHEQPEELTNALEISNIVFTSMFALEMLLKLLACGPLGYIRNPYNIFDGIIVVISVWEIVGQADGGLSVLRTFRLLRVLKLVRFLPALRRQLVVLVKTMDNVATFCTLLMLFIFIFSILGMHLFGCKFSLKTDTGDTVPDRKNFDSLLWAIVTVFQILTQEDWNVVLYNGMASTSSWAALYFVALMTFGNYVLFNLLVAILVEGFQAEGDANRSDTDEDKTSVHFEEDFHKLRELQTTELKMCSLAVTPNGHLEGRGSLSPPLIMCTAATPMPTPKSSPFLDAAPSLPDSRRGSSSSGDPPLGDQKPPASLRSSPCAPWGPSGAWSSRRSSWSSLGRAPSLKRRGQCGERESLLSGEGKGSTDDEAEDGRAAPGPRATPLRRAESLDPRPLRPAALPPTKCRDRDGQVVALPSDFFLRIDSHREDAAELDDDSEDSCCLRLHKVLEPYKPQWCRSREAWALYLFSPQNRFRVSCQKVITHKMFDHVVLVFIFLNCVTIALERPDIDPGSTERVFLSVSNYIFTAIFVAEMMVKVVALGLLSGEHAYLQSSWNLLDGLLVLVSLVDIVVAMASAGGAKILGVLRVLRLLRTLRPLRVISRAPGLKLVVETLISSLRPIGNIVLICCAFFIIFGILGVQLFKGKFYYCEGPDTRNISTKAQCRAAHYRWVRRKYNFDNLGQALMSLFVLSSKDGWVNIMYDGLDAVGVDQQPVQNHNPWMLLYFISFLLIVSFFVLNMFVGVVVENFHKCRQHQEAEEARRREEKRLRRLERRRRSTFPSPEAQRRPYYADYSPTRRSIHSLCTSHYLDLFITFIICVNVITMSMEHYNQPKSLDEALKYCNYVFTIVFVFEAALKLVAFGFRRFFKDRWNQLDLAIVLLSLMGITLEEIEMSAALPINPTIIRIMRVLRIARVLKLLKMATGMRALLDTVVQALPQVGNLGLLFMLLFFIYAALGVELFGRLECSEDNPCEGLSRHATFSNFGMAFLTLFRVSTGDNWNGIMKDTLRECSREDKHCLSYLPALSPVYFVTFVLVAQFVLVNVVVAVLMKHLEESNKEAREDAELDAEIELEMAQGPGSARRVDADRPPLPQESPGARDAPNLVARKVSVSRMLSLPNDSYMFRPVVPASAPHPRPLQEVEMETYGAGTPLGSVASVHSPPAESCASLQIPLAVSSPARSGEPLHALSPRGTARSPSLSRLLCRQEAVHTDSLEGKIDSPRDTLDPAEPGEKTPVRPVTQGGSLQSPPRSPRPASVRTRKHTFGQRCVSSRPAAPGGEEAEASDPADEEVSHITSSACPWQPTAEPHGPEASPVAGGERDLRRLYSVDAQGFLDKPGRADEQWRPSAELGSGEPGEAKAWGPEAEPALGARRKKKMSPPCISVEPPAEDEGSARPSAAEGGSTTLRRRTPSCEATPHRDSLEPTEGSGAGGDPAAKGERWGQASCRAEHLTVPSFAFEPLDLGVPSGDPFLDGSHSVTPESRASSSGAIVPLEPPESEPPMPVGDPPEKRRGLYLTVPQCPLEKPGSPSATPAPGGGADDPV

In the case of `COC(C)(C)CNC(=O)c1cc2nc(C(F)(F)F)c(CC3CCC(F)(F)CC3)n2c(C#N)c1Cl` [Compound 173, 6-Chloro-5-cyano-3-[(4,4-difluorocyclohexyl)methyl]-N-(2-methoxy-2-methylpropyl)-2-(trifluoromethyl)imidazo[1,2-a]pyridine-7-carboxamide], the IC50 [1] is reported as at most 100 nM and the “inhibition of the increase of the scratching behavior in morphine-induced pruritus mice” value [2] is reported as “inhibited the increase of the scratching behavior”.
For `N#CC1(CNC(=O)c2cc(Cl)n3c(CC4CCC(F)(F)CC4)c(C(F)(F)F)nc3c2)CC1` [Compound 176, 5-Chloro-N-[(1-cyanocyclopropyl)methyl]-3-[(4,4-difluorocyclohexyl)methyl]-2-(trifluoromethyl)imidazo[1,2-a]pyridine-7-carboxamide], the IC50 [1, 3] was at most 100 nM and the “inhibition of the increase of the scratching behavior in morphine-induced pruritus mice” value [2] was “inhibited the increase of the scratching behavior”.
For `N#Cc1cc(C(=O)N[C@H]2C[C@@H]3CC[C@H]2O3)cc2nc(C(F)(F)F)c(CC3CCC(F)(F)CC3)n12` [Compound 178, N-[(1R,2S,4S)-7-Oxabicyclo[2.2.1]heptan-2-yl]-5-cyano-3-[(4,4-difluorocyclohexyl)methyl]-2-(trifluoromethyl)imidazo[1,2-a]pyridine-7-carboxamide], the IC50 [1, 3] was at most 100 nM and the “inhibition of the increase of the scratching behavior in morphine-induced pruritus mice” value [2] was “inhibited the increase of the scratching behavior”.
`CC(C)c1nc2cc(C(=O)N[C@H]3C[C@@H]4CC[C@H]3O4)cc(C#N)n2c1CC1CCC(F)(F)CC1` [Compound 180, N-[(1R,2S,4S)-7-Oxabicyclo[2.2.1]heptan-2-yl]-5-cyano-3-[(4,4-difluorocyclohexyl)methyl]-2-isopropylimidazo[1,2-a]pyridine-7-carboxamide] was tested, and the IC50 [1] was at most 100 nM and the “inhibition of the increase of the scratching behavior in morphine-induced pruritus mice” value [2] was “inhibited the increase of the scratching behavior”.
For `Cc1c(C(=O)NC2CCOCC2)cc2nc(C(F)(F)F)c(CC3CCC(F)(F)CC3)n2c1C#N` [Compound 181, 5-Cyano-3-[(4,4-difluorocyclohexyl)methyl]-6-methyl-N-(tetrahydro-2H-pyran-4-yl)-2-(trifluoromethyl)imidazo[1,2-a]pyridine-7-carboxamide], the IC50 [1, 3] was at most 100 nM and the “inhibition of the increase of the scratching behavior in morphine-induced pruritus mice” value [2] was “inhibited the increase of the scratching behavior”.
With `CN(C)CC(C)(C)CNC(=O)c1cc(C#N)n2c(CC3CCC(F)(F)CC3)c(C(F)(F)F)nc2c1` [Compound 182, 5-Cyano-3-[(4,4-difluorocyclohexyl)methyl]-N-[3-(dimethylamino)-2,2-dimethylpropyl]-2-(trifluoromethyl)imidazo[1,2-a]pyridine-7-carboxamide] the IC50 [1, 3] was at most 100 nM and the “inhibition of the increase of the scratching behavior in morphine-induced pruritus mice” value [2] was “inhibited the increase of the scratching behavior”.
With `CC(F)(F)c1nc2cc(C(=O)N[C@H]3C[C@@H]4CC[C@H]3O4)cc(C#N)n2c1CC1CCC(F)(F)CC1` [Compound 183, N-[(1R,2S,4S)-7-Oxabicyclo[2.2.1]heptan-2-yl]-5-cyano-3-[(4,4-difluorocyclohexyl)methyl]-2-(1,1-difluoroethyl)imidazo[1,2-a]pyridine-7-carboxamide] the IC50 [1] was at most 100 nM and the “inhibition of the increase of the scratching behavior in morphine-induced pruritus mice” value [2] was “inhibited the increase of the scratching behavior”.
In the case of `COC(C)(C)CNC(=O)c1cc2nc(C(C)(F)F)c(CC3CCC(F)(F)CC3)n2c(C#N)c1C` [Compound 184, 5-Cyano-3-[(4,4-difluorocyclohexyl)methyl]-2-(1,1-difluoroethyl)-N-(2-methoxy-2-methylpropyl)-6-methylimidazo[1,2-a]pyridine-7-carboxamide], the IC50 [1] is reported as at most 100 nM and the “inhibition of the increase of the scratching behavior in morphine-induced pruritus mice” value [2] is reported as “inhibited the increase of the scratching behavior”.
In the case of `Cc1c(C(=O)NC2CCOCC2)cc2nc(C(C)(F)F)c(CC3CCC(F)(F)CC3)n2c1C#N` [Compound 185, 5-Cyano-3-[(4,4-difluorocyclohexyl)methyl]-2-(1,1-difluoroethyl)-6-methyl-N-(tetrahydro-2H-pyran-4-yl)imidazo[1,2-a]pyridine-7-carboxamide], the IC50 [1] is reported as at most 100 nM and the “inhibition of the increase of the scratching behavior in morphine-induced pruritus mice” value [2] is reported as “inhibited the increase of the scratching behavior”.
With `[2H]C([2H])([2H])OC(C)(C)CNC(=O)c1cc(C#N)n2c(CC3CCC(F)(F)CC3)c(C(F)(F)F)nc2c1` [Compound 186, 5-Cyano-3-[(4,4-difluorocyclohexyl)methyl]-N-(2-methoxy-d3-2-methylpropyl)-2-(trifluoromethyl)imidazo[1,2-a]pyridine-7-carboxamide] the IC50 [1] was at most 100 nM and the “inhibition of the increase of the scratching behavior in morphine-induced pruritus mice” value [2] was “inhibited the increase of the scratching behavior”.
For `CC(C)(CNC(=O)c1cc(C#N)n2c(CC3CCC(F)(F)CC3)c(C(F)(F)F)nc2c1)S(C)(=O)=O` [Compound 189, 5-Cyano-3-[(4,4-difluorocyclohexyl)methyl]-N-[2-methyl-2-(methylsulfonyl)propyl]-2-(trifluoromethyl)imidazo[1,2-a]pyridine-7-carboxamide], the IC50 [1, 3] was at most 100 nM and the “inhibition of the increase of the scratching behavior in morphine-induced pruritus mice” value [2] was “inhibited the increase of the scratching behavior”.
`[2H]C([2H])([2H])OC(C)(C)CNC(=O)c1cc2nc(C(C)(F)F)c(CC3CCC(F)(F)CC3)n2c(C#N)c1C` [Compound 190, 5-Cyano-3-[(4,4-difluorocyclohexyl)methyl]-2-(1,1-difluoroethyl)-N-(2-methoxy-d3-2-methylpropyl)-6-methylimidazo[1,2-a]pyridine-7-carboxamide] was tested, and the IC50 [1] was at most 100 nM and the “inhibition of the increase of the scratching behavior in morphine-induced pruritus mice” value [2] was “inhibited the increase of the scratching behavior”.
`[2H]C([2H])([2H])OC(C)(C)CNC(=O)c1cc(C#N)n2c(CC3CCC(F)(F)CC3)c(C(C)(F)F)nc2c1` [Compound 194, 5-Cyano-3-[(4,4-difluorocyclohexyl)methyl]-2-(1,1-difluoroethyl)-N-(2-methoxy-d3-2-methylpropyl)imidazo[1,2-a]pyridine-7-carboxamide] was tested, and the IC50 [1] was at most 100 nM and the “inhibition of the increase of the scratching behavior in morphine-induced pruritus mice” value [2] was “inhibited the increase of the scratching behavior”.
For `CC(C)(CNC(=O)c1cc(Cl)n2c(CC3CCC(F)(F)CC3)c(C(F)(F)F)nc2c1)S(C)(=O)=O` [Compound 197, 5-Chloro-3-[(4,4-difluorocyclohexyl)methyl]-N-[2-methyl-2-(methylsulfonyl)propyl]-2-(trifluoromethyl)imidazo[1,2-a]pyridine-7-carboxamide], the IC50 [1] was at most 100 nM and the “inhibition of the increase of the scratching behavior in morphine-induced pruritus mice” value [2] was “inhibited the increase of the scratching behavior”.
In the case of `Cc1cc(C(=O)NC2CCOCC2)cc2nc(C(F)(F)F)c(Cc3ccc(Cl)cc3)n12` [Compound 208, 3-(4-Chlorobenzyl)-5-methyl-N-(tetrahydro-2H-pyran-4-yl)-2-(trifluoromethyl)imidazo[1,2-a]pyridine-7-carboxamide], the IC50 [1] is reported as at most 100 nM and the “inhibition of the increase of the scratching behavior in morphine-induced pruritus mice” value [2] is reported as “inhibited the increase of the scratching behavior”.
